Data published in patent publication US10132029B2, “Method for reducing adhesion of microorganisms to fabrics” (priority 2013, dated 2018).

Tested on: S. aureus DSMZ 20231
Assay: Syto9 microtiter plate assay: adhesion of bacteria to coated polyester fabric samples
Format: cell-based, Staphylococcus aureus
Conditions: for Reduction in adhered bacteria [%]: S. aureus, polyester; for Reduction in adhered bacteria [%] S. aureus: polyester fabric, application concentration 0.1 wt %, commercial product applied directly by padding, relative to uncoated fabric
Description: Circular fabric samples with a diameter of 0.6 cm were punched from coated and uncoated cotton and polyester fabrics. The fabric samples were fixed to a microtiter plate. The fabric samples were washed with acetone and sterilized with UV light for 60 minutes.
The strains were coated fresh from glycerol bacterial cultures onto tryptic soy agar (TSA). Incubation took place overnight at 33° C. The nutrient medium prepared was a tryptic soy broth (TSB), with 30% of the amount recommended by the manufacturer, supplemented with 0.25% of glucose. […] The nutrient medium was inoculated with the bacterial cultures and after inoculation was cultivated overnight at 37° C. and 160 rpm.
The resulting overnight cultures were centrifuged at 8500 g for 15 minutes and washed with 50 ml of isotonic saline solution (0.9 wt %). Bacterial suspensions in isotonic saline solutions were prepared. The optical density of the various bacterial suspensions was determined at 595 nm and adjusted to a level of about 1.2.
50 μl of the final microorganism suspension in isotonic saline solution (0.9 wt %) prepared as described under 2.2 were added to the coated and uncoated fabric samples fixed on the microtiter plate (see 2.1). The microtiter plates were closed and sealed off with Parafilm. The microtiter plates were placed in an antievaporation box and incubated at 33° C. for 2 h and at 40 rpm. The expected colony-forming unit count (CFU) of the inoculum at the start was 10^6-10^7 CFU/ml.
After the biofilm had formed, the planctonic cells were removed and used as a sample for determining the optical density at 595 nm. For this purpose, the samples were made up to a volume of 150 μl, and 100 μl were withdrawn for the optical density determination in a photometer. The optical density of the corresponding control solution with sterile isotonic saline solution was subtracted from the optical densities found. Through the determination of the planctonic cells after the formation of biofilm, the amount of bacteria available for adhesion was monitored.
The fabric samples and the resulting biofilm were washed three times with 200 to 300 μl of isotonic saline solution.
The fabric samples obtained under 2.4 (after formation of biofilm) were placed together with 100 μl of isotonic saline solution into wells of a 96-well microtiter plate.
Investigations into the removal of the adhered microorganisms from the fabric surfaces were carried out with vortexing, ultrasound, with enzymatic treatment, or with combinations thereof. Treatment in the vortex amounted to 5 minutes and was performed horizontally. The ultrasound treatment was carried out in an ultrasound bath for 5 minutes. For the enzymatic removal, the fabric samples were treated with enzymes, such as trypsin or a mixture of different enzymes, for example, during incubation at 37° C. for 1 hour.
Following removal of the adhered bacteria, the fabric samples were removed from the microtiter plates.
The number of removed bacteria in the resulting suspension was determined by staining with Syto9 and fluorescence measurement (fluorescence filter with excitation at 485/20 nm and emission at 528/20 nm) or by staining with BacTiterGlo and bioluminescence measurement. Furthermore, it is possible to determine the number of adhered and removed microorganisms by means of protein assay (e.g., BCA assay, Bradford Assay) or optical density proliferation assay.
The relative variables (e.g., fluorescence units (RFU)) concerning the coated and uncoated fabrics were compared, allowing the reduction in adhered bacteria in % to be determined in accordance with the following formula: Reduction in adhered bacteria[%]=[(RFUuc−RFUuc)/RFUuc]*100 where • RFUuc=relative fluorescence units of the removed bacteria of the uncoated substrate • RFUc=relative fluorescence units of the removed bacteria of the coated substrate […]

[1] = coating concentration 0.001 %, wash pretreatment (A) unwashed
[2] = coating concentration 0.001 %, wash pretreatment (B) washed twice at 30° C. only with water
[3] = coating concentration 0.001 %, wash pretreatment (C) washed once at 30° C. EN ISO 6330 method 8A with ECE B detergent
[4] = coating concentration 0.01 %, wash pretreatment (A) unwashed
[5] = coating concentration 0.01 %, wash pretreatment (B) washed twice at 30° C. only with water
[6] = coating concentration 0.01 %, wash pretreatment (C) washed once at 30° C. EN ISO 6330 method 8A with ECE B detergent
[7] = coating concentration 0.1 %, wash pretreatment (A) unwashed
[8] = coating concentration 0.1 %, wash pretreatment (B) washed twice at 30° C. only with water
[9] = coating concentration 0.1 %, wash pretreatment (C) washed once at 30° C. EN ISO 6330 method 8A with ECE B detergent

Row | Compound | Reduction in adhered bacteria [%] [1] [%] | Reduction in adhered bacteria [%] [2] [%] | Reduction in adhered bacteria [%] [3] [%] | Reduction in adhered bacteria [%] [4] [%] | Reduction in adhered bacteria [%] [5] [%] | Reduction in adhered bacteria [%] [6] [%] | Reduction in adhered bacteria [%] [7] [%] | Reduction in adhered bacteria [%] [8] [%] | Reduction in adhered bacteria [%] [9] [%] | Reduction in adhered bacteria [%] S. aureus [%]
1 | N-(triethoxysilylpropyl)-O-polyethylene oxide-urethane, (4-6 EO units) [S3] | 57 | 54 | 69 | 63 | 34 | 58 | 47 | 46 | 61 | 55
2 | CO[Si](CCCN(CCN(CC(=O)[O-])CC(=O)[O-])CC(=O)[O-])(OC)OC.[Na+].[Na+].[Na+] [S5, N-(trimethoxysilylpropyl)ethylenediaminetriacetyl acid, trisodium salt] | 69 | 59 | 75 | 44 | 22 | 53 | 72 | 68 | 38 | 46
